Literature values, collected in paper PMC3815949 (Microbial biotechnology, 2009).

Tested on: DmpA
Format: biochemical, Brucella anthropi

SMILES | Km [mM]
NCCC(N)=O [H-β-Ala-NH2] | ~1.5
N[C@@H](Cc1cnc[nH]1)C(=O)O [L-histidine] | ~51
